Experimental data: PMC6066355, “Probing the binding site of novel selective positive allosteric modulators at the M1 muscarinic acetylcholine receptor” (Biochemical Pharmacology, 2018)
Residue numbers refer to the chain shown, from its start.

Assays:
WT M1 mAChR [1] = biological target: T1, WT M1 mAChR (Homo sapiens, UniProt P11229); test: IP-One (IP1) accumulation assay, CHO-hM1 cells; type: cell-based; conditions: for αβ (functional cooperativity with ACh, antilog in brackets) / Logαβ (logarithm of functional cooperativity between ACh and modulator): non-alkylated; for Logαβ (logarithm of functional cooperativity between ACh and modulator): pKB constrained to Table 1, β constrained to 1
T1 construct: expressed in transfected cells
T1 sequence (P11229 1-460): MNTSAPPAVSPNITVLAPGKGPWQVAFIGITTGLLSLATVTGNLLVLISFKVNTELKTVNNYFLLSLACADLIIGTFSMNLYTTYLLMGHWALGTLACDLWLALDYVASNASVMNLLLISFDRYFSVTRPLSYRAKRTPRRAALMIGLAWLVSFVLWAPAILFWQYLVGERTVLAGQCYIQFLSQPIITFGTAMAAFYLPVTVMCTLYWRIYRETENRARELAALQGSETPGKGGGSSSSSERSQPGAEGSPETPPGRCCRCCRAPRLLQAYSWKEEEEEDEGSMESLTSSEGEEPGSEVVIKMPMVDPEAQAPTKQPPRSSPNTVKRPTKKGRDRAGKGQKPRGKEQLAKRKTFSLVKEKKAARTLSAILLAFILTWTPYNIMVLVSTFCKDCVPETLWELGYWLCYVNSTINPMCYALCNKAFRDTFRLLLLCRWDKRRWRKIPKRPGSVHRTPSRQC
Description: (§1) The IP-One assay kit (Cisbio) was used for the direct quantitative measurement of myo-Inositol 1 phosphate (IP1). Cells were seeded at 25,000 per well into 96-well transparent cell culture plates and incubated overnight at 37 °C. […] Cells were then lysed with IP1 lysis buffer (50 mM HEPES pH 7.0, 15 mM KF, 1.5% V/V Triton-X-100, 3% V/V FBS, 0.2% W/V BSA), and IP1 levels were measured by incubation of cell lysates with FRET reagents (the cryptate-labeled anti-IP1 antibody and the d2-labeled IP1 analogue) for 1 h at 37 °C. […] Signals were expressed as the FRET ratio: F = (fluorescence665 nm/fluorescence590 nm) × 10^4, and normalized to the response to maximal ACh concentration (100 µM).
(Eq. (2)) was used:(2) Y=Basal+Em-Basal/1+KA+A/τA where Em is the maximal possible system response and Basal is the response in the absence of agonist. [A] denotes the concentration of ligand, and KA represents its equilibrium dissociation constants. τ denotes the intrinsic efficacy of the ligand, which incorporates the total receptor density and the efficiency of stimulus-response coupling.
(§2) Functional interaction studies between orthosteric agonists and allosteric modulators in IP1 assays were analysed using the following operational model of allosterism and agonism (Eq. (3)):(3) E=Basal+Em-BasalAKB+αβB+τBBEC50/EC50KB+B+AKB+αβB+τBBEC50 where Em is the maximal possible system response, and Basal is the response in the absence of agonist. KB is the equilibrium dissociation constant of allosteric ligand, and EC50 is the concentration of orthosteric agonist required to achieve half maximal response. [A] and [B] denote concentrations of orthosteric and allosteric ligands, respectively. α and β denote allosteric effects on orthosteric ligand binding affinity and efficacy, respectively, and τB denotes the efficacy of allosteric ligand. This model assumes that ACh is a full agonist at the receptor in both the absence/presence of modulator and/or there is no efficacy modulation (i.e., β = 1).

W400^7.35A M1 mAChR = biological target: T2, W400^7.35A M1 mAChR (Homo sapiens, UniProt P11229, W400A); test: Whole cell [3H]NMS binding inhibition/interaction assay (ACh ± PAM), FlpIn CHO cells; conditions: affinity and cooperativity could not be estimated
T2 construct: expressed in transfected cells
T2 sequence (P11229 1-460 W400A): T1 sequence (P11229 1-460) with W400A
Description: Saturation binding assays were performed to estimate the expression levels and equilibrium dissociation constant of the radioligand (KD). FlpIn CHO cells stably expressing the WT or mutant c-myc hM1 mAChRs were plated at the density of 25,000 per well of 96-well white clear bottom Isoplates (PerkinElmer Life Sciences, Boston, MA), and grown overnight at 37 °C. […] Atropine at the final concentration of 100 µM was used to determine non-specific binding. The assays were terminated by rapid removal of the radioligand, and two washes with 100 µl/well ice-cold 0.9% NaCl buffer.
All data were analysed using GraphPad Prism 7 (San Diego, CA). […] Binding interaction studies between orthosteric agonists and allosteric modulators were fitted to the following allosteric ternary complex model (Eq. (1)):(1) Y=BmaxD/D+KDKB/α^′B+KB1+I/KI+B/KB+αIB/KIKB where Bmax is the total number of receptors, [D], [B] and [I] denote the concentrations of radioligand, allosteric ligand, and orthosteric ligand, respectively, and KD, KB and KI represent their respective equilibrium dissociation constants. α′ and α are the cooperativity factors between the allosteric ligand and radioligand or orthosteric ligand, respectively.

WT M1 mAChR [2] = biological target: T1, WT M1 mAChR; test: Receptor alkylation assay: IP1 accumulation after PBZ pre-treatment, CHO-hM1 cells; type: cell-based; conditions: for Effect on maximal ACh response (potency of ACh increased): 10 µM PBZ pre-treatment, ACh a partial agonist; for αβ (functional cooperativity with ACh, antilog in brackets) / Logαβ (logarithm of functional cooperativity between ACh and modulator): alkylated with PBZ (10 µM pre-treatment); for Logαβ (logarithm of functional cooperativity between ACh and modulator): β constrained to 1
Description: as §1
Cells were pre-treated with vehicle or the irreversible orthosteric alkylating agent, phenoxybenzamine (PBZ) for 30 min at 37 °C, 5% CO2 to reduce functional receptor availability, followed by three extensive washes with PBS. IP1 accumulation assays were then performed as described above.
as §2

| Structure (SMILES) | LogτB (logarithm of functional efficacy of the modulator) (WT M1 mAChR [1]) | τB (functional efficacy of the modulator, antilog in brackets) (WT M1 mAChR [1]) | αβ (functional cooperativity with ACh, antilog in brackets) (WT M1 mAChR [1]) | Logαβ (logarithm of functional cooperativity between ACh and modulator) (WT M1 mAChR [1]) | Modulatory effect on ACh inhibition of [3H]NMS binding (W400^7.35A M1 mAChR) | Effect on maximal ACh response (potency of ACh increased) (WT M1 mAChR [2]) | αβ (functional cooperativity with ACh, antilog in brackets) (WT M1 mAChR [2]) | Logαβ (logarithm of functional cooperativity between ACh and modulator) (WT M1 mAChR [2]) |
| --- | --- | --- | --- | --- | --- | --- | --- | --- |
| Cn1cc(-c2ccc(COc3ccccc3-c3cc(=O)n(C4CCCCC4O)cn3)cc2)cn1 (stereo not drawn) [MIPS1780, 3-(2-hydroxycyclohexyl)-6-(2-((4-(1-methyl-1H-pyrazol-4-yl)-benzyl)oxy)phenyl)pyrimidin-4(3H)-one] | 1.00 ± 0.05 | 10 | 59 | 1.77 ± 0.14 | completely abolished | no effect on the maximal agonist response | 117 | 2.07 ± 0.13 |
| Cc1cnc(C(=O)N[C@H]2CCOC[C@@H]2O)cc1Cc1ccc(-c2cscn2)cc1 [PF-06767832, N-((3R,4S)-3-hydroxytetrahydro-2H-pyran-4-yl)-5-methyl-4-(4-(thiazol-4-yl)benzyl)pyridine-2-carboxamide] | 1.01 ± 0.03 | 10 | 83 | 1.92 ± 0.11 | completely abolished | no effect on the maximal agonist response | 144 | 2.16 ± 0.11 |
| Cn1cc(-c2ccc(Cn3cc(C(=O)N[C@H]4CCCC[C@@H]4O)c4c(F)cc(F)cc43)cn2)cn1 [VU6004256, 4,6-difluoro-N-(1S,2S)-2-hydroxycyclohexyl-1-((6-(1-methyl-1H-pyrazol-4-yl)pyridine-3-yl)methyl)-1H-indole-3-carboxamide] | 1.24 ± 0.05 | 17 | 60 | 1.78 ± 0.18 | completely abolished | no effect on the maximal agonist response | 91 | 1.96 ± 0.22 |
